In experiment [1] the test system is LoVo cells. In words: Cell apoptosis analysis (Annexin V-PE/7-AAD flow cytometry). In kind it is cell-based, human. How it is done:
LoVo cells (1 × 10^5 cells/well) were seeded into a 6-well plate and incubated at 37 °C and 5% CO2 atmosphere overnight. The seeded cells were then treated with different concentrations of tested compounds for 24, 48 and 72 h. After treatments, cells were trypsinized and washed with PBS followed by the addition of 1× binding buffer (500 μL), Annexin V-PE (5 μL) and 7-AAD (5 μL) solutions. The resulting mixture was then incubated in the dark at 4 °C for 20 min. Upon completion, the mixture was analysed with a flow-cytometer at the PE and APC channel. The values presented are the means ± SD of three independent experiments.

For experiment [2], the system named is caspase-9. In words: Western blot, cleaved caspase-9. To be noted: 5 µM, LoVo cells. In kind it is cell-based, human. How it is done: (§1) Lovo cells (1.5 × 10^4 cells/cm^2) were seeded in a T75 flask and incubated at 37 °C and 5% CO2 atmosphere overnight. The seeded cells were then treated with selected compounds at 5 µM of 2e for 24 h, 48 h, and 72 h. After treatment, the cells were harvested and lysed with phenylmethanesulfonyl fluoride (PMSF)-containing cell lysis buffer. The lysates were then centrifuged at 13,300× g for 15 min and the supernatant was collected. Protein concentrations of all samples were determined using a BCA assay kit (Thermo Scientific Inc., Waltham, MA, USA). Equal amounts of protein were electrophoresed in 12% and 20% SDS-polyacrylamide gel (SDS-PAGE), and electro-transferred onto a 0.22-μm polyvinyldene difluoride membrane. Each membrane was blocked with 5% (w/v) skim milk at room temperature for 1 h followed by overnight incubation with specific primary antibodies (1:1000) at 4 °C. Subsequently, the respective membrane was washed thrice with TBST (0.05% (v/v) of tween-20) followed by 1 h incubation with secondary antibody (1:10,000). Upon completion, the membrane was washed thrice with 1X Tris-Buffered Saline, 0.1% Tween® 20 Detergent (TBST) and the immune reactive bands were developed using SuperSignal West Dura Extended Duration Substrate (Thermo Scientific Inc., Waltham, MA, USA). […]

The subject of experiment [3] is Bax. Kind of experiment: Western blot, Bax. In kind it is cell-based, human. To be noted: 5 µM, LoVo cells, detectable only after 48 h. How it is done: as §1
Experiment [4] deals with HT29 cells. In words: MTT cytotoxicity assay, HT29 cells. To be noted: Homo sapiens, HT-29, 72 h post-treatment, read-out: IC50 (µM) BRAF HT29. In kind it is cell-based. How it is done: (§2) The in-vitro cytotoxic activity of the synthesized compounds on seven human CRC cell lines including KRAS (T84, SW620, LoVo) and BRAF (HT29, NCI-H508, RKO and LS411N) mutated cells were determined by MTT assay as previously described. The IC50 values obtained are summarized in Table 2 in which 5-FU and normal human dermal fibroblasts (NHDF) were used as controls. Meanwhile, a heatmap (Figure 3) was also generated using GraphPad Prism v7.0 (GraphPad Software, La Jolla, CA, USA) to visualize the cytotoxic trends of synthesized compounds graphically.
(§3) A panel of KRAS (T84, SW620 and LoVo) and BRAF (HT29, NCI-H508, RKO and LS411N) mutated human CRC cell lines were grown in Dulbecco’s modified Eagle’s medium (DMEM) containing 10% fetal bovine serum (FBS) and 1% penicillin/streptomycin at 37 °C under 5% CO2 while NHDF cells were cultured in DMEM with 5% FBS under the same condition. The culture medium was replenished every two days until the cells reached 80–90% confluency for further usage. All cell lines (T84, ATCC®CCL-248™; SW620, ATCC®CCL-227™; LoVo, ATCC®CCL-229™; HT-29, ATCC®HTB-38; NCI-H508, ATCC®CCL-253™; RKO, ATCC®CRL-2577; LS411N, ATCC®CRL-2159; NHDF, ATCC® PCS-201-010™) were purchased from American Type culture Collections (ATCC, Manassas, VA, USA).
(§4) LoVo cells (1.5–5 × 10^3 cells/well) were seeded into a 96 well plate and incubated at 37 °C and 5% CO2 atmosphere for 24 h. On the following day, the cell media were replaced with 100 µL of test compounds at various concentration. The final concentration of DMSO in the well is 0.1%. After 72 h of incubation, culture medium was removed and 100 µL of MTT (thiazoyl blue tertrazolium bromide) solution (0.5 mg/mL in culture media) was added. The resultant plates were then further incubated at 37 °C for 4 h. Upon completion, the MTT solution was removed and the formazan salts formed were dissolved in 100 µL of DMSO. The absorbance was recorded with a microplate reader at 570 nm. The IC50 values of tested compounds were calculated from three independent experiments.

Experiment [5] concerns caspase-8. In words: Western blot, caspase-8. In kind it is cell-based, human. To be noted: 5 µM, LoVo cells. How it is done:
as §1

Experiment [6] concerns LoVo cells. In words: Colony formation assay. In kind it is cell-based, human. To be noted: 0.625-5 µM, 7 days post-treatment. How it is done:
LoVo cells (1 × 10^3 cells/well) were seeded into a 6-well plate and incubated at 37 °C and 5% CO2 atmosphere overnight. After incubation, the culture media were replaced with 3 mL of test compounds at various concentration and further incubated for seven days. Upon completion, cells were washed with PBS and fixed with 4% paraformaldehyde for 15 min followed by cell staining with 0.5% (w/v) crystal violet for 20 min. The resultant plates were then washed with tap water and dried at room temperature. Upon drying, the plate image was photographed.

Experiment [7] deals with normal human dermal fibroblasts (NHDF). Kind of experiment: MTT cytotoxicity assay, normal human dermal fibroblasts. In kind it is cell-based. To be noted: 72 h post-treatment. How it is done:
as §2, §3, §4

The test system of experiment [8] is cleaved caspase-7. Kind of experiment: Western blot, cleaved caspase-7. To be noted: 5 µM, LoVo cells, after 24 h. In kind it is cell-based, human. How it is done:
as §1

Experiment [9] relates to Bcl-xL. In words: Western blot, Bcl-xL. In kind it is cell-based, human. To be noted: 5 µM, LoVo cells, up to 72 h. How it is done: as §1
Experiment [10] has as its system SW620 cells. Kind of experiment: MTT cytotoxicity assay, SW620 cells. To be noted: Homo sapiens, SW-620, 72 h post-treatment, read-out: IC50 (µM) KRAS SW620. In kind it is cell-based. How it is done:
as §2, §3, §4

These results are taken from PMC7504466, “In-Vitro and In-Silico Evaluations of Heterocyclic-Containing Diarylpentanoids as Bcl-2 Inhibitors Against LoVo Colorectal Cancer Cells” (Molecules, 2020).

Consider `O=C1C(=Cc2ccccc2Br)CSCC1=Cc1ccccc1Br` [Compound 2e, 3,5-Bis(2-bromobenzylidene)tetrahydro-4H-thiopyran-4-one], for which the “lowest in vitro effective dose against LoVo cells” value in [1] worked out at 2.5 µM. The “cellular apoptosis (annexin V)” value in experiment [1] (0.625 and 1.25 µM) was “minimal insignificant effects”; in experiment [1] (2.5 and 5 µM, 24-72 h), “could induce cellular apoptosis”. In [2], the caspase-9 cleavage entry is given as “activate the cleavage of caspase-9”. In addition, the Bax expression entry in experiment [3] is on record as “up-regulation”. The IC50 stood at 2.1 µM in experiment [4], 7100 nM in experiment [7] and 1.4 µM in [10]. Besides, the caspase-8 cleavage result in experiment [5] is reported as “unaffected”. For the same compound, the “colony formation of LoVo cells” value in experiment [6] was “inhibit the colony formation of LoVo cells in a dose-dependent manner”. Also, the “cleaved caspase-7 level” value in experiment [8] was “increased”. Besides, in [9], the Bcl-xL expression result is “remained unaffected”.
